Values of other authors, collected in patent US20200323813A1, “TREATMENT OF VIRAL HEMORRHAGIC FEVERS WITH COX-2 SELECTIVE NON-STEROIDAL ANTI-INFLAMMATORY DRUGS” (Tremeau Pharmaceuticals, Inc., priority 2019, published 2020).

Key:
[1] = versus non-selective NSAIDs
[2] = test system: platelet aggregation or bleeding time; conditions: doses up to 375 mg/day
[3] = oral once daily product
[4] = test system: COX-2 versus COX-1

SMILES: CS(=O)(=O)c1ccc(C2=C(c3ccccc3)C(=O)OC2)cc1 [Rofecoxib, 4-[4-(methylsulfonyl)phenyl]-3-phenyl-2(5H)-furanone]
- GI tolerability and safety events [1]: significant improvements
- median onset of action (acute pain settings): 45 min
- sustained efficacy (duration) (single dose): 24 h
- effect on bleeding time [2]: not affect
- effect on platelet aggregation [2]: not affect
- half-live [3]: approximately 17 hours
- COX-2 versus COX-1 selectivity [4]: 35 fold
